Measured values: patent publication US9540361B2, “N-substituted azetidine derivatives” (Merck Sharp & Dohme B.V., priority 2010, dated 2017)
Marks after values point to notes of the source that are not given here.

Legend:
[1] = molecular target: T1, human estrogen receptor α (hERα) (Homo sapiens, UniProt P03372); assay: antagonistic activity in CHO cells co-transfected with hERα, rat oxytocin promoter and luciferase reporter gene; format: cell-based; details: antagonism of 17β-estradiol-induced transactivation, CHO-hERα-RO-LUC; read-out: ERα pIC50 (converted)
T1 sequence (P03372 1-595): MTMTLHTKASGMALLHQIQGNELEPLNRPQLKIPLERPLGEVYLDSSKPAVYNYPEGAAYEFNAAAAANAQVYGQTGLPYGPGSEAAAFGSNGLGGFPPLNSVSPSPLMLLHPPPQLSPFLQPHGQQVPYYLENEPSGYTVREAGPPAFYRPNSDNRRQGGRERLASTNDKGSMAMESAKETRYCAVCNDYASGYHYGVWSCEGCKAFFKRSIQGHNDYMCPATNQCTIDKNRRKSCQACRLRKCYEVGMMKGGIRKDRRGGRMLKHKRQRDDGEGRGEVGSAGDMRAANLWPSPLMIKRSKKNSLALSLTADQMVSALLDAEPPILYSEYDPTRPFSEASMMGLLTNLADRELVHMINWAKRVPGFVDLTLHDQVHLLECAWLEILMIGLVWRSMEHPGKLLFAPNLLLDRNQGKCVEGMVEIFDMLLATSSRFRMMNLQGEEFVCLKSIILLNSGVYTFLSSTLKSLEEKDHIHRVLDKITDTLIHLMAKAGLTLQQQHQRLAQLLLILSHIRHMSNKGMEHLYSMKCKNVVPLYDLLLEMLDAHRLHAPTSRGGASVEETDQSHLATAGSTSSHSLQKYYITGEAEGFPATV
Experimental: The antagonistic activity of compounds on the estrogen receptors was determined in an in vitro bioassay with recombinant Chinese Hamster Ovary (CHO) cells stably co-transfected with the human estrogen receptor α (hERα), the rat oxytocin promoter (RO) and the luciferase reporter gene (LUC). […] The antagonistic efficacy, i.e. the amount of maximal inhibition of the 17β-estradiol activated receptor by a compound, is expressed as fraction relative to the maximal inhibition as induced by the standard anti-estrogen ICI 164,384 (efficacy test compound=(maximal inhibition test compound/maximal inhibition ICI 164,384)). A more detailed description of the methodology can be found in De Gooyer et al., Steroids, 68 (2003) 21-30.

estrogen receptor alpha = molecular target: T2, estrogen receptor alpha (Homo sapiens, UniProt P03372); assay: ERα downregulation assay in T47D breast cancer cells (ERα ELISA); format: cell-based; details: downregulation of ERα relative to fulvestrant (100%), 1E-5 M, 24 hours, negative = upregulation
T2 construct: endogenous in cells; host or cells: T47D human breast cancer cells (ATCC)
T2 sequence (P03372 1-595): T1 sequence (P03372 1-595)
Excerpt: More specifically, this in vitro bioassay is used to determine the efficacy (fraction of maximal response) of the compound by comparing the data for this compound with those of the reference compound ICI 182,780 (fulvestrant) in the same test (downregulation of fulvestrant is 100% by definition).
A more detailed description of the method used is as follows.
Cell culture. The human epithelial breast cancer cell line T47D (origin: ATCC) was routinely maintained in a 1:1 mixture of Ham's F12 medium and Dulbecco's Modified Eagle Medium (Gibco) enriched with 5% fetal calf serum (Hyclone), 10 mM HEPES pH 7.5 and 100 μg/ml penicillin-streptomycin solution. Cells were grown in 80 cm2 culture flasks (Nunc, Roskilde, Denmark) and kept in an atmosphere of 5% CO2-95% air at 37 degrees Celsius. Cells were subcultured when they reached about 80-90% confluence, resulting in one passage a week. Subculturing includes detaching the cells using Cell Dissociation Buffer [Sigma] and subsequent inoculation at 1:5 or 1:10 in a new Roux flask (175 cc) and\or plating out in Nunclon™ Surface 96 wells microplates. The culture medium needs to be refreshed on day three or four of the incubation, if applicable.
Determination of ERα protein levels: T47D cells in the microplates are incubated with 1E-5 M test compound for 24 hours. The supernatant in all wells is carefully aspirated. Cells are lysed on the microplate and cell lysates are probed for ERα content using an ERα ELISA assay kit (Active Motif).

SMILES	IC50 [1]	DR (%) (estrogen receptor alpha)
Cl.O=C(c1ccc(OC2CN(CCC(F)(F)F)C2)cc1)c1c(-c2ccc(O)cc2)sc2cc(O)ccc12 [compound 7p, (6-hydroxy-2-(4-hydroxyphenyl)benzo[b]thiophen-3-yl)(4-(1-(3,3,3-trifluoropropyl)azetidin-3-yloxy)phenyl)methanone hydrochloride]	5.01 nM	35%
CCCN1CC(Oc2ccc(C(=O)c3c(-c4ccccc4Cl)noc3-c3cccc4[nH]ncc34)cc2)C1.O=C(O)C(F)(F)F [compound 7as, (3-(2-chlorophenyl)-5-(1H-indazol-4-yl)isoxazol-4-yl)(4-(1-propylazetidin-3-yl-oxy)phenyl)methanone 2,2,2-trifluoroacetate]	39.8 nM	55%
CCCN1CC(Oc2ccc(Oc3c(-c4ccc(O)cc4)sc4cc(O)ccc34)cc2)C1.O=C(O)C(F)(F)F [compound 6c, 2-(4-hydroxyphenyl)-3-(4-(1-propylazetidin-3-yloxy)phenoxy)benzo[b]thiophen-6-ol 2,2,2-trifluoroacetate]	0.251 nM	7 ^(c) %
CCCN1CC(Oc2ccc(C(=O)c3c(-c4ccc(O)cc4)sc4cc(O)ccc34)cc2F)C1.Cl [compound 7u, (3-fluoro-4-(1-propylazetidin-3-yloxy)phenyl)(6-hydroxy-2-(4-hydroxyphenyl)-benzo[b]thiophen-3-yl)methanone hydrochloride]	0.794 nM	78%
CCCN1CC(Oc2ccc(C(=O)c3c(-c4ccccc4Cl)noc3-c3ccc(N)cc3)cc2)C1.O=C(O)C(F)(F)F [compound 7ar, (5-(4-aminophenyl)-3-(2-chlorophenyl)isoxazol-4-yl)(4-(1-propylazetidin-3-yl-oxy)phenyl)methanone 2,2,2-trifluoroacetate]	20 nM	82%

Second part, the compound after the results:

IC50 [1]	DR (%) (estrogen receptor alpha)	SMILES
7.94 nM	64%	CCCN1CC(Oc2ccc(C(OC)c3c(-c4ccccc4Cl)noc3-c3ccc(O)cc3)cc2)C1 (stereo not shown) [compound 7aw, 4-(3-(2-chlorophenyl)-4-(methoxy(4-(1-propylazetidin-3-yloxy)phenyl)methyl)-isoxazol-5-yl)phenol]
0.501 nM	66%	Cl.Oc1ccc(-c2onc(-c3ccccc3Cl)c2-c2ccc(OC3CN(CC4CCOC4)C3)cc2)cc1 (stereo not shown) [compound 7x, 4-(3-(2-chlorophenyl)-4-(4-(1-((tetrahydrofuran-3-yl)methyl)azetidin-3-yloxy)-phenyl)isoxazol-5-yl)phenol hydrochloride]
1.58 nM	94%	CCCN1CC(Oc2ccc(-c3c(-c4cccc(C)c4C)noc3-c3ccc(O)cc3)cc2)C1.O=C(O)C(F)(F)F [compound 7ac, 4-(3-(2,3-dimethylphenyl)-4-(4-(1-propylazetidin-3-yloxy)phenyl)isoxazol-5-yl)phenol 2,2,2-trifluoroacetate]
12.6 nM	99%	CCCN1CC(Oc2ccc(-c3c(-c4snnc4C)noc3-c3ccc(O)cc3)cc2)C1.Cl [compound 7ae, 4-(3-(4-methyl-1,2,3-thiadiazol-5-yl)-4-(4-(1-propylazetidin-3-yloxy)phenyl)isoxazol-5-yl)phenol hydrochloride]
25.1 nM	93%	CCCN1CC(Oc2ccc(C(=O)c3c(-c4ncccc4C)noc3-c3ccc(O)cc3)cc2)C1.Cl [compound 7am, (5-(4-hydroxyphenyl)-3-(3-methylpyridin-2-yl)isoxazol-4-yl)(4-(1-propylazetidin-3-yloxy)phenyl)methanone hydrochloride]
3.16 nM	92%	CCCN1CC(Oc2ccc(-c3c(-c4c(C)noc4C)noc3-c3ccc(O)cc3)cc2)C1.Cl [compound 7af, 4-(3′,5′-dimethyl-4-(4-(1-propylazetidin-3-yloxy)phenyl)-3,4′-biisoxazol-5-yl)-phenol hydrochloride]
